The NIST ThermoML archive (doi:10.1016/j.jct.2018.01.019)

Experiment: molar heat capacity at constant pressure
Conditions: 101.33 kPa, Crystal 2, Small sample (50 mg) DSC

O=[Si]=O [silicon dioxide]
Conditions | molar heat capacity at constant pressure [J/K/mol]
285 K | 43.21
290 K | 43.7
295 K | 44.22
300 K | 44.74
305 K | 45.21
310 K | 45.69
315 K | 46.16
320 K | 46.62
325 K | 47.09
330 K | 47.56
335 K | 48.02
340 K | 48.49
345 K | 48.94
350 K | 49.39
355 K | 49.78
360 K | 50.22
365 K | 50.62
370 K | 51.02
375 K | 51.38
380 K | 51.76
385 K | 52.15
390 K | 52.52
395 K | 52.89
400 K | 53.25
405 K | 53.61
410 K | 53.99
415 K | 54.34
420 K | 54.7
425 K | 55.03
430 K | 55.38
435 K | 55.74
440 K | 56.07
445 K | 56.42
450 K | 56.75
455 K | 57.1
460 K | 57.4
465 K | 57.69
470 K | 58.01
475 K | 58.29
480 K | 58.59
485 K | 58.87
490 K | 59.12
495 K | 59.37
500 K | 59.63
505 K | 59.91
510 K | 60.16
515 K | 60.41
520 K | 60.66
525 K | 60.91
530 K | 61.15
535 K | 61.41
540 K | 61.66
545 K | 61.92
550 K | 62.19
555 K | 62.45
560 K | 62.73
565 K | 63.01
570 K | 63.26
575 K | 63.49
580 K | 63.74
585 K | 64.01
590 K | 64.24
595 K | 64.46
600 K | 64.69
605 K | 64.89
610 K | 65.09
615 K | 65.3
620 K | 65.5
625 K | 65.73
630 K | 65.97
635 K | 66.17
640 K | 66.38
645 K | 66.62
650 K | 66.84
655 K | 67.01
660 K | 67.18
665 K | 67.38
670 K | 67.57
675 K | 67.75
680 K | 67.94
685 K | 68.16
690 K | 68.35
695 K | 68.56
700 K | 68.75
705 K | 68.95
710 K | 69.14
715 K | 69.35
720 K | 69.58
725 K | 69.69
730 K | 69.83
735 K | 70
740 K | 70.22
745 K | 70.45
750 K | 70.72
755 K | 71
760 K | 71.26
780.95 K | 71.65
781.12 K | 71.67
781.28 K | 71.59
781.45 K | 71.55
781.61 K | 71.6
781.78 K | 71.49
781.94 K | 71.36
782.11 K | 71.45
782.28 K | 71.45
782.45 K | 71.54
782.62 K | 71.57
782.78 K | 71.51
782.95 K | 71.6
783.12 K | 71.5
783.28 K | 71.3
783.45 K | 71.26
783.62 K | 71.08
783.78 K | 71.24
783.95 K | 71.41
784.12 K | 71.45
784.28 K | 71.52
784.45 K | 71.54
784.62 K | 71.49
784.78 K | 71.52
784.95 K | 71.46
785.12 K | 71.45
785.28 K | 71.49
785.45 K | 71.49
785.62 K | 71.49
785.79 K | 71.54
785.95 K | 71.6
786.12 K | 71.72
786.29 K | 71.77
786.45 K | 71.65
786.62 K | 71.5
786.78 K | 71.36
786.95 K | 71.21
787.12 K | 71.35
787.29 K | 71.46
787.46 K | 71.52
787.62 K | 71.51
787.78 K | 71.6
787.95 K | 71.68
788.12 K | 71.69
788.28 K | 71.59
788.45 K | 71.56
788.62 K | 71.65
788.79 K | 71.81
788.95 K | 71.75
789.12 K | 71.7
789.29 K | 71.78
789.45 K | 71.82
789.62 K | 71.7
789.79 K | 71.66
789.95 K | 71.68
790.12 K | 71.65
790.28 K | 71.4
790.45 K | 71.28
790.62 K | 71.32
790.78 K | 71.49
790.95 K | 71.6
791.12 K | 71.65
791.29 K | 71.82
791.45 K | 71.83
791.62 K | 71.77
791.79 K | 71.7
791.95 K | 71.64
792.12 K | 71.58
792.29 K | 71.65
792.45 K | 71.69
792.61 K | 71.77
792.78 K | 71.83
792.95 K | 71.78
793.12 K | 71.69
793.28 K | 71.67
793.45 K | 71.75
793.61 K | 71.63
793.78 K | 71.65
793.95 K | 71.8
794.12 K | 71.75
794.29 K | 71.74
794.45 K | 71.73
